Data taken from publication PMC12434668 (Journal of Medicinal Chemistry, 2025).
≈ marks a conversion by molar mass, not a printed value. Where “and” joins values, the source holds several entries; their conditions need not be identical. Identical values can stand only once. Like-named read-outs stand apart in the source and are kept apart here.

How the values were obtained:
[1] = target: T1, Mcl-1 (Homo sapiens, UniProt Q07820); assay: TR-FRET binding assay (FITC-Bak peptide competition)
T1 construct: Briefly, a previously reported construct was subcloned into an expression vector (pDEST-HisMBP); MBP (from vector pDEST-HisMBP); made in house; host or cells: Escherichia coli BL21 CodonPlus (DE3) RIL
From the text: Protein preparation was described previously. Briefly, a previously reported construct was subcloned into an expression vector (pDEST-HisMBP) expressed in Escherichia coli BL21 CodonPlus (DE3) RIL (Stratagene) and purified through nickel-column and size-exclusion chromatography sequentially.
Mixtures containing vehicle without compound served as a negative control, while mixtures containing no protein served as a positive control. […] Two or more repeats were obtained and average K i values are reported.

[2] = system: NCI-H929 cells; assay: In vitro proliferation assay (CellTiter-Glo), H929; format: cell-based; details: Homo sapiens
Description: (§1) NCI-H929, A427, and K562 cell lines were obtained from ATCC. NCI-H929 cells were cultured in RPMI1640 (ATCC-formulated, Catalog No. 30-2001) + 10% fetal calf serum (FCS, GIBCO BRL, Cat. No. 26140) + 0.05 mM mercaptoethanol. A-427 cells were cultured in RPMI1640 (ATCC-formulated, Catalog No. 30-2001) + 10% fetal calf serum (FCS, GIBCO BRL, Cat. No. 26140). K562 cell lines were cultured in Iscove’s Modified Dulbecco Medium (Gibco-formulated, purchased from Thermo-Fisher, Cat. No. 12440-053) + 10% fetal bovine serum (FBS, Sigma-Aldrich, F2442). All cell lines were cultured at 37 °C with 5% CO2 in a humidified incubator and have been regularly tested negatively for mycoplasm contamination.
(§2) Cells were seeded at 750–1500 cells per well (depending on growth kinetics) in 384-well plates (Corning, Catalog No. 3707) or at 3000 cells per well in 96-well plates in the respective growth medium and allowed to settle overnight. Suspension cells were plated immediately before compound addition. Adherent cell lines were incubated overnight at 37 °C in a tissue culture incubator prior to compound addition. Compounds were added in triplicates using an HP D300e Digital Dispenser (Hewlett-Packard) or manually at the concentrations indicated and total volumes were normalized using DMSO backfill, with final DMSO concentration of 0.5%. Control wells were treated with DMSO only. Following incubation for 72 or 96 h, a Cell Titer-Glo assay was conducted following the manufacturer recommendations (Promega, G9243) and luminescence was measured using a Victor X5 (PerkinElmer) or a Cytation 3 (Biotek) plate reader. % Viability was defined as relative luminescence units (RLU) of each well divided by the RLU of cells on day 0. Four parameter sigmoidal dose–response curves were generated and IC50 values were determined using XLFit (IDBS) software (eq 205) or in-house software. Drug combination experiments were performed in 96-well or 384-well format and drug synergy was determined using the BLISS model (PMID: 26171228).

[3] = system: A427 cells; assay: In vitro proliferation assay (CellTiter-Glo), A427; format: cell-based; details: Homo sapiens, A-427
Description: as §1, §2

[4] = system: K562 cells; assay: In vitro proliferation counterscreen, Mcl-1 insensitive K562; format: cell-based; details: for GI50: Homo sapiens, Mcl-1 insensitive K562, top concentration tested 12.5 µM
Description: NCI-H929, A427, and K562 cell lines were obtained from ATCC.
Suspension cells were plated immediately before compound addition. Adherent cell lines were incubated overnight at 37 °C in a tissue culture incubator prior to compound addition. Compounds were added in triplicates using an HP D300e Digital Dispenser (Hewlett-Packard) or manually at the concentrations indicated and total volumes were normalized using DMSO backfill, with final DMSO concentration of 0.5%. Control wells were treated with DMSO only. Following incubation for 72 or 96 h, a Cell Titer-Glo assay was conducted following the manufacturer recommendations (Promega, G9243) and luminescence was measured using a Victor X5 (PerkinElmer) or a Cytation 3 (Biotek) plate reader. % Viability was defined as relative luminescence units (RLU) of each well divided by the RLU of cells on day 0.

[5] = system: caspase 3/7 in H929 cells; assay: Caspase 3/7 induction assay (Caspase-Glo), H929; format: cell-based; details: compound treatment for 3 h; for EC50: Homo sapiens, NCI-H929
Description: (§3) Cells were treated with a 10-point compound titration and incubated at 37 °C for 3 h.

[6] = system: caspase 3/7 in A427 cells; assay: Caspase 3/7 induction assay (Caspase-Glo), A427; format: cell-based; details: compound treatment for 3 h; for EC50: Homo sapiens, A-427
Description: as §3

[7] = system: caspase 3/7 in K562 cells; assay: Caspase 3/7 induction assay (Caspase-Glo), K562; format: cell-based; details: compound treatment for 3 h; for EC50: Homo sapiens, K562
Description: as §3

[8] = Mouse pharmacokinetic analyses (i.v. and oral); format: in vivo; details: plasma
Description: For PK analysis, mice were administered intravenously or orally with compound formulated in 10% ethanol and 10% Cremophor EL. Compound 13 dosing was also screened with 20% Phosphal IPG, 20% Phosphal MCT, 10% HP-β-CD, and 40% HP-β-CD. Plasma samples were obtained at predefined time points and compound concentrations in plasma were measured by quantitative HPLC–MS/MS using an internal standard. Calibration and quality control samples were prepared using blank plasma from untreated animals. Samples were precipitated with acetonitrile and injected into a HPLC system (Agilent 1200). Separation was performed by gradients of 5 mmol/L ammonium acetate pH 5.0 and acetonitrile with 0.1% formic acid on a Luna C8 reversed-phase column with 2.5 μm particles (Phenomenex). The HPLC was interfaced by ESI operated in positive ionization mode to a triple quadrupole mass spectrometer (6500+ Triple Quad System, SCIEX) operated in multiple reaction monitoring mode. Chromatograms were analyzed with Analyst (SCIEX) and pharmacokinetic parameters were calculated by noncompartmental analysis using proprietary software.

[9] = Kinetic aqueous solubility; format: physicochemical
[10] = system: A427 cell line-derived NSCLC xenograft; assay: Subcutaneous A427 NSCLC xenograft efficacy study; format: in vivo; details: for tumor regressions (day 28): animals regressing / group
From the text: Female BomTac:NMRI-Foxn1nu mice and CB17/Icr-Prkdc(scid)/IcrCrl and were obtained from Taconic Denmark at an age of 6–8 weeks. After arrival of the local animal facility at Boehringer Ingelheim RCV GmbH & Co KG (institutional approval–Amt der Wiener Landesregierung, Magistratsabteilung 58, GZ: 135147/2013/4) mice were allowed to adjust to housing conditions at least for 5 days before the start of the experiment. Mice were group-housed under pathogen-free and controlled environmental conditions and handled according to the institutional, governmental and European Union guidelines (Austrian Animal Protection Laws, GV-SOLAS and FELASA guidelines). Animal studies were approved by the internal ethics committee and the local governmental committee (Amt der Wiener Landesregierung, Magistratsabteilung 58). To establish subcutaneous tumors mice were injected with 5 × 10^6 A427 cells in Matrigel (CB17/Icr-Prkdc(scid)/IcrCrl. Tumor diameters were measured with a caliper three times a week. The volume of each tumor [in mm^3] was calculated according to the formula “tumor volume = length*diameter^2*π/6.” To monitor side effects of treatment, mice were inspected daily for abnormalities and body weight was determined. Animals were sacrificed when the tumors reached a size of 1500 mm^3. Mice were dispatched randomly into treatment groups when the tumor size was 160 mm^3. Tumors were reported as regressing when the tumor volume at a given day was below the tumor volume at treatment start.

[11] = system: Bcl-2; assay: Selectivity for Mcl-1 over Bcl-2; format: binding
[12] = system: Bcl-xL; assay: Selectivity for Mcl-1 over Bcl-xL; format: binding
[13] = set-up: method as in earlier work; details: ref 66 (number lost in text); cited from earlier work
[14] = in the presence of 1% fetal bovine serum, average of at least n = 2, read-out: TRFRET, Mcl-1 Ki
[15] = supplementary CSV, unit inferred
[16] = iv, dosed at 20 mg/kg, read-out: i.v. mouse CL
[17] = iv, supplementary CSV, unit not given (Table 1: 20 mg/kg, 14 and 16 at 10 mg/kg), read-out: CL
[18] = aqueous medium at pH 6.8, pH 6.8
[19] = H929 cell line, average of at least n = 2, triplicate
[20] = A427 cell line, average of at least n = 2, triplicate

T1 sequence (Q07820 whole entry): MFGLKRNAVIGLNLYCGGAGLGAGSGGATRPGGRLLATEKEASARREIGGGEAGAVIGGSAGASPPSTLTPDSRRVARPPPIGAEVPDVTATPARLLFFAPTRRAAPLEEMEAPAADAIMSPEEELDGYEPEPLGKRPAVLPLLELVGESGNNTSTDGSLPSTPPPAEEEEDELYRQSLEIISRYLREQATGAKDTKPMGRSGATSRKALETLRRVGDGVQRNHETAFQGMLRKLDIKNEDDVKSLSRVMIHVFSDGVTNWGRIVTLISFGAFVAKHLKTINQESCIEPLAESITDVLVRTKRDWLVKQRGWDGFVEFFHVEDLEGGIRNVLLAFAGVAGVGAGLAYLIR

COc1cc2c3c(cc(C(=O)O)n3CCCOCc3nn(C)c(C)c3-c3c(Cl)ccc4c(CCCOc5cc(C)c(Cl)c(C)c5)c5n(c34)[C@H](C)CN2C5=O)c1OC [Compound 10, (2^63^4 S a ,1^72^2 R a ,2^4 R)-2^7-Chloro-2^10-(3-(4-chloro-3,5-dimethylphenoxy)propyl)-1^4,1^5-dimethoxy-2^4,3^1,3^5-trimethyl-2^1-oxo-2^1,2^2,2^3,2^4-tetrahydro-1^1 H,3^1 H-5-oxa-2(2,6)-pyrazino[1,2-a]indola-1(7,1)-indola-3(4,3)-pyrazolacyclooctaphane-1^2-carboxylic Acid]
Ki [1, 14]: 0.08 ± 0.01 nM
GI50 [2, 15]: 20 nM
GI50 [3, 15]: 48 nM
GI50 [4]: > 9700 nM
EC50 [5]: 9 nM
H929 Caspase 3/7 maximum activity, fold over vehicle (FoV) [5]: 16 fold
EC50 [6]: 11 nM
A427 Caspase 3/7 fold over vehicle (FoV) [6]: 13 fold
EC50 [7]: > 3120 nM
K562 Caspase 3/7 fold over vehicle (FoV) [7]: 1.4 fold
clearance [8, 16]: 6.6 mL/min/kg
clearance [8, 17]: 6.6 mL/min/kg
solubility kinetic [9, 18]: 2 µg/mL (≈ 2.45 µM)

COc1cc2c3c(cc(C(=O)O)n3CCCOCc3nn(C)cc3-c3c(Cl)ccc4c(CCCOc5cc(C)c(Cl)c(C)c5)c5n(c34)[C@H](C)CN2C5=O)c1C [Compound 17, (2^63^4 S a ,1^72^2 R a ,2^4 R)-2^7-Chloro-2^10-(3-(4-chloro-3,5-dimethylphenoxy)propyl)-1^5-methoxy-1^4,2^4,3^1-trimethyl-2^1-oxo-2^1,2^2,2^3,2^4-tetrahydro-1^1 H,3^1 H-5-oxa-2(2,6)-pyrazino[1,2-a]indola-1(7,1)-indola-3(4,3)-pyrazolacyclooctaphane-1^2-carboxylic Acid]
Ki [1, 14]: < 0.08 nM
Ki ([1]; supplementary CSV, unit inferred, read-out: Ki TRFRET): < 0.02 nM
GI50 [2, 19]: 23 ± 5 nM
GI50 [3, 20]: 32 ± 7 nM
GI50 [4]: > 12500 nM
EC50 [5]: 16 nM
H929 Caspase 3/7 maximum activity, fold over vehicle (FoV) [5]: 16 fold and 16 (16) fold
EC50 [6]: 12 nM
A427 Caspase 3/7 fold over vehicle (FoV) [6]: 16 fold
EC50 [7]: > 3120 nM
K562 Caspase 3/7 fold over vehicle (FoV) [7]: 1.3 fold
clearance [8, 16]: 5.7 mL/min/kg
clearance [8, 17]: 5.7 mL/min/kg
solubility kinetic ([9]; aqueous medium, pH 6.8, pH 6.8): 39 µg/mL (≈ 49.7 µM)

COc1cc2c3c(cc(C(=O)O)n3CCCOCc3nn(C)cc3-c3c(Cl)ccc4c(CCCOc5cc(C)c(Cl)c(C)c5)c5n(c34)[C@H](C)CN2C5=O)c1OC [Compound 13, (2^63^4 S a ,1^72^2 R a ,2^4 R)-2^7-Chloro-2^10-(3-(4-chloro-3,5-dimethylphenoxy)propyl)-1^4,1^5-dimethoxy-2^4,3^1-dimethyl-2^1-oxo-2^1,2^2,2^3,2^4-tetrahydro-1^1 H,3^1 H-5-oxa-2(2,6)-pyrazino[1,2-a]indola-1(7,1)-indola-3(4,3)-pyrazolacyclooctaphane-1^2-carboxylic Acid]
Ki [1, 14]: < 0.08 nM
GI50 [2, 19]: 14 ± 4 nM
GI50 [3, 20]: 25 ± 9 nM
selectivity for Mcl-1-sensitive cell lines over the K562 control ([4]; GI50 ratio): > 900 fold
GI50 [4]: > 12500 nM
EC50 [5]: 13 nM
H929 Caspase 3/7 maximum activity, fold over vehicle (FoV) [5]: 16 fold
EC50 [6]: 7.8 nM
A427 Caspase 3/7 fold over vehicle (FoV) [6]: 16 fold
EC50 [7]: > 3120 nM
K562 Caspase 3/7 fold over vehicle (FoV) [7]: 1.3 fold
AUC ([8]; iv, 20 mg/kg, read-out: AUCIV): 60.9 µM·h
AUC ([8]; iv, 30 mg/kg q14d i.v., xenograft study, read-out: AUC): 144 µM·h
AUC ([8]; iv, 60 mg/kg q14d i.v., xenograft study, read-out: AUC): 481 µM·h
clearance [8, 16]: 7.4 mL/min/kg
clearance [8, 17]: 7.4 mL/min/kg
AUC ([8]; oral, 20 mg/kg, read-out: AUCPO): 0.625 µM·h
bioavailability ([8]; po, read-out: oral bioavailability (F)): 1%
solubility kinetic [9, 18]: 85 µg/mL (≈ 106 µM)
tolerability, body weight ([10]; 60 mg/kg q14d i.v.): body weight behaved similarly to the vehicle control cohort
tumor regressions (day 28) ([10]; 60 mg/kg q14d i.v.): 7/8
tumor outgrowth, study day ([10]; sc, 60 mg/kg, 480 h): ~50 study day
selectivity for Mcl-1 over Bcl-2 [11]: > 50,000 fold
selectivity for Mcl-1 over Bcl-xL [12]: > 50,000 fold

COc1c(OCC2CCOCC2)cc(N2C[C@@H](C)n3c(c(CCCOc4cc(C)c(Cl)c(C)c4)c4ccc(Cl)c(-c5c(C)nc(C)nc5C)c43)C2=O)c2c1cc(C(=O)O)n2C [Compound 1]
AUC ([8]; iv, 40 mg/kg q14d i.v., xenograft study, read-out: AUC): 198 µM·h
tumor regressions (day 28) ([10]; 40 mg/kg q14d i.v.): 0/8
dog CL [13]: 5.2 mL/min/kg
